Source: patent publication US20250154163A1, “Pyrimidinone-Containing 17-Beta-Hydroxysteroid Dehydrogenase Type 13 Inhibitors” (ENANTA PHARMACEUTICALS, INC., priority 2023, published 2025)

Legend:
[1] = biological target: T1, Recombinant human 17β-HSD13 (Homo sapiens, UniProt Q7Z5P4); assay: 17β-HSD13 rapid-fire mass spectrometry assay (RF/MS assay); assay type: biochemical; settings: inhibition of 17β-HSD13, RF/MS assay; HSD17B13 80 nM, LTB4 10 μM, NAD+ 0.5 mM, RT 3 h
T1 construct: host or cells: Sf9 insect cells
T1 sequence (Q7Z5P4 20-300): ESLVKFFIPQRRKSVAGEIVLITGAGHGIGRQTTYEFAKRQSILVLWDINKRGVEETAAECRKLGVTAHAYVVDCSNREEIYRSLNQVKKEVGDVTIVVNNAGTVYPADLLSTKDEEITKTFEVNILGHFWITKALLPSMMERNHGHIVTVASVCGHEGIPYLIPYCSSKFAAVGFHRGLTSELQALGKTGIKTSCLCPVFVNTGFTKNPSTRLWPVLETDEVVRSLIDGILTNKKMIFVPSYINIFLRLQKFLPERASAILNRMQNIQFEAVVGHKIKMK
How it was run: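 Purified recombinant human 17β-HSD13 (sf9-expressed, 80 nM) incubated with compound (0–100 μM), 10 μM LTB4 and 0.5 mM NAD+ in 20 mM Tris pH 7.5, 0.005% BSA, 0.01% Tween-20, 3 h at RT. 12-oxo-LTB4 formation quantified by RapidFire MS/MS; percent conversion normalized to controls, IC50 from variable-slope fit, duplicates.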

[2] = biological target: T2, human HSD17β13 (stable HEK293T cell line overexpressing human HSD17β13) (Homo sapiens, UniProt Q7Z5P4); assay: HSD17β13 inhibitor cell-based screening assay (conversion of estradiol-d2 to estrone-d2 by RF-MS); settings: conversion of estradiol-d2 to estrone-d2 after 24 hours
T2 construct: expressed in transfected cells
T2 sequence (Q7Z5P4 20-300): T1 sequence (Q7Z5P4 20-300)
How it was run: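 Cellular IC50 is based on 24-h conversion of estradiol-d2 (5 μM final) to estrone-d2, measured by RF-MS in acetonitrile-precipitated supernatants. Assay uses human HSD17β13-overexpressing HEK293T cells (7.5E3/well, 1% charcoal/dextran FBS MEM), with compounds dosed as a 9-point 1:3 series to 10 μM final. ATPlite luminescence on overexpressing and parent lines measured viability.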

IC50 [1]	IC50 [2]	Compound
< 0.1 µM	< 0.1 µM	O=c1c2c(nc(-c3ccc(F)cc3C3CC3)n1Cc1cnc(C3CC3)o1)sc1c(O)c(Cl)ccc12 [Example 50, 7-chloro-2-(2-cyclopropyl-4-fluorophenyl)-3-((2-cyclopropyloxazol-5-yl)methyl)-8-hydroxybenzo[4,5]thieno[2,3-d]pyrimidin-4(3H)-one]
> 10 µM	1 to 100 µM	COc1ccc(-c2nc3sc4c(NS(C)(=O)=O)cccc4c3c(=O)n2Cc2cnco2)c(C2CC2)c1 [Example 7, N-(2-(2-cyclopropyl-4-methoxyphenyl)-3-(oxazol-5-ylmethyl)-4-oxo-3,4-dihydrobenzo[4,5]thieno[2,3-d]pyrimidin-8-yl)methanesulfonamide]
< 0.1 µM	< 0.1 µM	O=c1c2c(nc(-c3cc(Cl)c(F)cc3C3CC3)n1Cc1cnco1)sc1c(O)c(Cl)ccc12 [Example 138]
< 0.1 µM	< 0.1 µM	O=c1c2c(nc(-c3cc(F)c(C(F)F)cc3C3CC3)n1Cc1cc(C(F)(F)F)no1)sc1c(O)c(Cl)ccc12 [Example 175]
0.1 to 1 µM	1 to 100 µM	COc1ccc(-c2nc3sc4c(C(=O)O)cccc4c3c(=O)n2Cc2cnco2)c(C2CC2)c1 [Example 2, 2-(2-cyclopropyl-4-methoxyphenyl)-3-(oxazol-5-ylmethyl)-4-oxo-3,4-dihydrobenzo[4,5]thieno[2,3-d]pyrimidine-8-carboxylic acid]
< 0.1 µM	< 0.1 µM	O=c1c2c(nc(-c3cc(F)c(F)cc3C3CC3)n1Cc1cc(C(F)(F)F)no1)sc1c(O)c(Cl)ccc12 [Example 85]
< 0.1 µM	< 0.1 µM	O=c1c2c(nc(-c3ncc(C(F)(F)F)cc3C3CC3)n1Cc1cc(C(F)(F)F)no1)sc1c(O)c(Cl)ccc12 [Example 96]
0.1 to 1 µM	1 to 100 µM	COc1ccc(-c2nc3sc4c(O)c(N)ccc4c3c(=O)n2Cc2cnco2)c(C2CC2)c1 [Example 28, 7-amino-2-(2-cyclopropyl-4-methoxyphenyl)-8-hydroxy-3-(oxazol-5-ylmethyl)benzo[4,5]thieno[2,3-d]pyrimidin-4(3H)-one]
1 to 10 µM	1 to 100 µM	COc1ccc(-c2nc3sc4c(C(N)=O)cccc4c3c(=O)n2Cc2cnco2)c(C2CC2)c1 [Example 3, 2-(2-cyclopropyl-4-methoxyphenyl)-3-(oxazol-5-ylmethyl)-4-oxo-3,4-dihydrobenzo[4,5]thieno[2,3-d]pyrimidine-8-carboxamide]
< 0.1 µM	< 0.1 µM	O=c1c2c(nc(-c3cc(Cl)c(Cl)cc3C3CC3)n1Cc1cnco1)sc1c(O)c(Cl)ccc12 [Example 77]
< 0.1 µM	< 0.1 µM	COc1ccc(-c2nc3sc4c(O)c(Cl)ccc4c3c(=O)n2Cc2cc(C)no2)c(C2CC2)c1 [Example 39, 7-chloro-2-(2-cyclopropyl-4-methoxyphenyl)-8-hydroxy-3-((3-methylisoxazol-5-yl)methyl)benzo[4,5]thieno[2,3-d]pyrimidin-4(3H)-one]
1 to 10 µM	1 to 100 µM	CCCc1ccc2c(sc3nc(-c4ccc(OC)cc4C4CC4)n(Cc4cnco4)c(=O)c32)c1O [Example 22, 2-(2-cyclopropyl-4-methoxyphenyl)-8-hydroxy-3-(oxazol-5-ylmethyl)-7-propylbenzo[4,5]thieno[2,3-d]pyrimidin-4(3H)-one]
> 10 µM	1 to 100 µM	COc1ccc(-c2nc3sc4c(ccc5[nH]c(=O)[nH]c54)c3c(=O)n2Cc2cnco2)c(C2CC2)c1 [Example 30, 8-(2-cyclopropyl-4-methoxyphenyl)-7-(oxazol-5-ylmethyl)-3,7-dihydro-1H-imidazo[4″,5″:3′,4′]benzo[1′,2′:4,5]thieno[2,3-d]pyrimidine-2,6-dione]
< 0.1 µM	< 0.1 µM	O=c1c2c(nc(-c3cc(F)c(Cl)cc3C3CC3)n1Cc1cnco1)sc1c(O)c(Cl)ccc12 [Example 123]
1 to 10 µM	1 to 100 µM	COc1ccc(-c2nc3sc4c(O[C@@H]5O[C@H](C(=O)O)[C@@H](O)[C@H](O)[C@H]5O)cccc4c3c(=O)n2Cc2cnco2)c(C2CC2)c1 [Example 17, (2S,3S,4S,5R,6S)-6-((2-(2-cyclopropyl-4-methoxyphenyl)-3-(oxazol-5-ylmethyl)-4-oxo-3,4-dihydrobenzo[4,5]thieno[2,3-d]pyrimidin-8-yl)oxy)-3,4,5-trihydroxytetrahydro-2H-pyran-2-carboxylic acid]
< 0.1 µM	0.1 to 0.5 µM	COc1ccc(-c2nc3sc4c(O)c(C)ccc4c3c(=O)n2Cc2cnco2)c(C2CC2)c1 [Example 32, 2-(2-cyclopropyl-4-methoxyphenyl)-8-hydroxy-7-methyl-3-(oxazol-5-ylmethyl)benzo[4,5]thieno[2,3-d]pyrimidin-4(3H)-one]
< 0.1 µM	< 0.1 µM	O=c1c2c(nc(-c3ncc(F)cc3C3CC3)n1Cc1cc(C(F)(F)F)no1)sc1c(O)c(Cl)ccc12 [Example 97]
> 10 µM	1 to 100 µM	COc1ccc(-c2nc3sc4c(F)cccc4c3c(=O)n2Cc2cnco2)c(C2CC2)c1 [Example 13, 2-(2-cyclopropyl-4-methoxyphenyl)-8-fluoro-3-(oxazol-5-ylmethyl)benzo[4,5]thieno[2,3-d]pyrimidin-4(3H)-one]
< 0.1 µM	< 0.1 µM	O=c1c2c(nc(-c3ncc(C(F)(F)F)cc3C3CC3)n1Cc1cnc(C(F)(F)F)nc1)sc1c(O)c(Cl)ccc12 [Example 99]
< 0.1 µM	< 0.1 µM	COc1cc(F)c(-c2nc3sc4c(O)c(Cl)ccc4c3c(=O)n2Cc2cnco2)c(C2CC2)c1 [Example 137]
< 0.1 µM	< 0.1 µM	O=c1c2c(nc(-c3ccc(F)cc3C3CC3)n1Cc1ccno1)sc1c(O)c(Cl)ccc12 [Example 52, 7-chloro-2-(2-cyclopropyl-4-fluorophenyl)-8-hydroxy-3-(isoxazol-5-ylmethyl)benzo[4,5]thieno[2,3-d]pyrimidin-4(3H)-one]
> 10 µM	0.1 to 0.5 µM	CCCCc1cccc2c1sc1nc(-c3ccc(OC)cc3C3CC3)n(Cc3cnco3)c(=O)c12 [Example 10, 8-butyl-2-(2-cyclopropyl-4-methoxyphenyl)-3-(oxazol-5-ylmethyl)benzo[4,5]thieno[2,3-d]pyrimidin-4(3H)-one]
0.1 to 1 µM	0.5 to 1 µM	COc1ccc(-c2nc3sc4c(B(O)O)cccc4c3c(=O)n2Cc2cnco2)c(C2CC2)c1 [Example 11, (2-(2-cyclopropyl-4-methoxyphenyl)-3-(oxazol-5-ylmethyl)-4-oxo-3,4-dihydrobenzo[4,5]thieno[2,3-d]pyrimidin-8-yl)boronic acid]
> 10 µM	1 to 100 µM	COC(=O)c1cccc2c1sc1nc(-c3ccc(OC)cc3C3CC3)n(Cc3cnco3)c(=O)c12 [Example 1, methyl 2-(2-cyclopropyl-4-methoxyphenyl)-3-(oxazol-5-ylmethyl)-4-oxo-3,4-dihydrobenzo[4,5]thieno[2,3-d]pyrimidine-8-carboxylate]
